From patent US9980489B2, “Stabilized bio-available soluble silicate solution” (priority 2010, dated 2018)

Tested on: silicon accumulator plants, silicon diffusion plants and silicon rejecting plants
Settings: foliar spray every week, solution containing 0002 mg/ml Si

Substance: silicic acid
- effect on growth, production, resistance to infection, color of fruits, shelf life: clear effect
